# Reference: patent US20090048461A1, “Regulators of Bacterial Signalling Pathways” (Biosignal Limited, priority 2004, published 2009)
# Tests used:
# [1] = test system: two-component signal transduction systems (Taz system); assay: Taz-1 assay (two-component signal transduction, beta-galactosidase activity); format: cell-based, E. coli RU1012 (pYT0301); conditions: for reduction of beta-galactosidase activity: 3 mM aspartate, 4 hours; for inhibition of two-component signal transduction systems: no concentration stated
# Method: The Taz-assay carried out according to the method of Jin and Inouyc (1993) with the following alterations. E. coli RU1012 (pYT0301) were grown overnight in M9 medium at 37° C. supplemented with 100 ug/ml ampicillin and 50 ug/ml kanamycin. This overnight culture was then used to inoculate 50 ml M9 medium in side-arm flasks which were then incubated at 37° C. and shaken at 180 rpm. The OD610 of the growing cultures was monitored regularly and when the OD610=0.2 the cultures were placed on ice […] to give a final concentration of 3 mM (aspartate stock solution made up in M9 salts).
# The test compound or mixtures of compounds were dissolved in ethanol and added to cultures to give the required final concentrations. Negative controls were prepared with equal volumes of ethanol. Cultures were then placed in a 37° C. incubator and shaken for 4 hours (OD610 approximately 0.7) before being removed and put on ice. Samples were then removed for beta-galactosidase assays carried out according to the method of Miller (1972). Aspartate (the natural inducer of the Taz system) was used as a positive control at a concentration of 3 mmolar.
# [2] = test system: V. harveyi reporter strain BB170 Al-2 bioluminescence; assay: V. harveyi bioassay for the detection of Al-2 activity (bioluminescence); format: cell-based, Vibrio harveyi; conditions: concentration of 50 ug/ml
# Method: The V. harveyi bioassay was performed as described previously (Surette and Bassler, 1998). The V. harveyi reporter strain BB170 was grown for 16 hours at 30° C. with shaking in AB medium. Cells were diluted 1:5,000 into 30° C. prewarmed AB medium and 90 ul of the diluted suspension was added to wells containing supernatant. Compounds to be tested were added to the wells to achieve the desired final concentrations and the final volume in each well was adjusted with sterile medium to 100 ul. Ten ul of V. harveyi BB152 (Al-1−, Al-2+) supernatant was used as a positive control and 10 ul of E. coli DH5α supernatant or sterile media was used as a negative control. […] The microtiter plates were incubated at 30° C. with shaking at 175 rpm. Hourly determinations of the total luminescence were quantified using the chemiluminescent setting on a Wallac (Gaithersburg, Md.) model 1450 Microbeta Plus liquid scintillation counter. The V. harveyi cell density was monitored by the use of a microplate reader (Bio-Rad, Hercules, Calif.). Activity is reported as the percentage of activity obtained from V. harveyi BB152 cell-free supernatant. While the absolute values of luminescence varied considerably between experiments, the pattern of results obtained was reproducible.
# Staphylococcus aureus = assay: Growth of Staphylococcus aureus in sidearm flasks (absorbance 610 nm); format: cell-based
# Method: Compounds 122 and 123 were tested against growth of Staphylococcus aureus. The experiments were performed in sidearm flasks and the growth was measured at 610 nm for 12 hours. Hundred μl of an overnight culture was added to 10 ml of growth medium. Nutrient Broth, containing furanones at concentrations 10 and 25 μg/ml. The bacteria were incubated at 37° C.
# [3] = test system: Pseudomonas aeruginosa (PA01 DO); assay: Attachment of Pseudomonas aeruginosa (PA01 DO), crystal violet, microtiter plate; format: cell-based; conditions: no concentration stated
# Method: The experiments were performed in 96 wells microtiter plates using a volume of 200 μl. The growth medium was M9 and the plates were incubated at 37° C. One % of overnight inoculum was used and the concentrations of the compounds to be tested were 25 and 50 μg/ml. The attachment of the cells were monitored at the endpoint of the experiment which was after 24 hrs. The cells were stained with crystal violet and the absorbance was measured at 595 nm. Reduction in attachment was measured against the control (PAO1 Do ETO ) set at 100%.
# Porphyromonas canoris [4] = assay: Growth of Porphyromonas canoris (Example 9); format: cell-based; conditions: 50 μg/ml; BHI, 24 hrs
# Method: (§1) The experiments were performed in 96 well microtiter plates using a volume of 100 μl. The growth medium was BHI and the plates were incubated at 37° C. One % of overnight inoculum was used and the concentration of the compound to be tested was 50 μg/ml. Both growth and attachment of the cells were monitored at the end point of the experiments which was and after 24 hrs with P. canoris. The cells were stained with crystal violet and the absorbance was measured at 595 nm.
# Porphyromonas canoris [5] = assay: Attachment of Porphyromonas canoris (Example 9); format: cell-based; conditions: 50 μg/ml; BHI, 24 hrs
# Method: as §1
# Pseudomonas aeruginosa [6] = assay: Growth of Pseudomonas aeruginosa (Example 10); format: cell-based; conditions: 50 μg/ml; 1:9 dilution of TBY medium, 6 hrs
# Method: as §1
# (§2) As Example 9, but the used medium was a 1:9 dilution of TBY medium and the incubation time was 6 hrs.
# Pseudomonas aeruginosa [7] = assay: Attachment of Pseudomonas aeruginosa (Example 10); format: cell-based; conditions: 50 μg/ml; 1:9 dilution of TBY medium, 6 hrs
# Method: as §1, §2
# [8] = 25 μg/ml, Nutrient Broth, 37° C., 12 hours
structure (smiles),measurement,setting,value
"CC(=O)/C(C)=C/Br [Compound 80, 3-(Bromomethylene)-2-Butanone]",reduction of beta-galactosidase activity,[1]; concentration of 50 ug/ml,75%
same,inhibition of two-component signal transduction systems,[1],act as inhibitors
"CCCCC(=CBr)C(C)=O [Compound 101, 3-(Bromomethylene)-2-Heptanone]",effect on bioluminescence activity,[2],significant increase
"CCC/C(=C\Br)C(C)=O [Compound 122, 3-(Bromomethylene)-2-Hexanone]",growth inhibition,Staphylococcus aureus; [8],slight growth inhibition
same,effect on attachment,[3],reduce the attachment
same,effect on bioluminescence activity,[2],significant increase
"CCC(=O)/C(C)=C/Br [Compound 123, 2-(Bromomethylene)-3-Pentanone]",reduction of beta-galactosidase activity,[1]; concentration of 25ug/ml,40%
same,inhibition of two-component signal transduction systems,[1],act as inhibitors
same,growth inhibition,"Staphylococcus aureus; 10 μg/ml, Nutrient Broth, 37° C., 12 hours",slight growth inhibition
same,prolonged lagphase of growth,Staphylococcus aureus; [8],4 h
same,growth inhibition compared to 122,Staphylococcus aureus; concentrations 10 and 25 μg/ml,more growth inhibitory
same,effect on attachment,[3],reduce the attachment
same,effect on bioluminescence activity,[2],significant increase
same,effect on growth,Porphyromonas canoris [4],relatively insignificant effect
same,effect on attachment to a surface,Porphyromonas canoris [5],significantly limits
same,effect on growth,Pseudomonas aeruginosa [6],relatively insignificant effect
same,effect on attachment to a surface,Pseudomonas aeruginosa [7],significantly limits
